From ChEMBL document CHEMBL3351759, “Synthesis and antitumor activity of novel 3-oxo-23-hydroxybetulinic acid derivatives” (Eur J Med Chem, 2014)

Assays:
Format in all cases: functional, cell-based
[1] = Antiproliferative activity against human HL60 cells after 72 hrs MTT assay; settings: HL-60, 72 h
[2] = Antiproliferative activity against human Bel7402 cells after 72 hrs MTT assay; settings: Bel-7402, 72 h
[3] = Antiproliferative activity against human SF763 cells after 72 hrs MTT assay; settings: SF763, 72 h
HeLa = assay: Antiproliferative activity against human HeLa cells after 72 hrs MTT assay
B16 = assay: Antiproliferative activity against mouse B16 cells after 72 hrs MTT assay; settings: B16, 72 h

SMILES | IC50 [1] [µM] | IC50 [2] [µM] | IC50 [3] [µM] | IC50 (HeLa) [µM] | IC50 (B16) [µM]
C=C(C)[C@@H]1CC[C@]2(C(=O)OCC(=O)OCC)CC[C@]3(C)[C@H](CC[C@@H]4[C@@]5(C)CC/C(=N\O)[C@@](C)(CO)[C@@H]5CC[C@]43C)[C@@H]12 | 33.7 | 30.6 | 26.1 | 30 | 17.8
C=C(C)[C@@H]1CC[C@]2(C(=O)OCC(=O)OCC)CC[C@]3(C)[C@H](CC[C@@H]4[C@@]5(C)CCC(=O)[C@@](C)(CO)[C@@H]5CC[C@]43C)[C@@H]12 | 37.1 | 30.7 | 24.7 | 40.8 | 25.7
C=C(C)[C@@H]1CC[C@]2(C(=O)O)CC[C@]3(C)[C@H](CC[C@@H]4[C@@]5(C)CC/C(=N\O)[C@@](C)(CO)[C@@H]5CC[C@]43C)[C@@H]12 | 36.9 | 32.1 | 31.8 | 40.8 | 23.8
C=C(C)[C@@H]1CC[C@]2(C(=O)O)CC[C@]3(C)[C@H](CC[C@@H]4[C@@]5(C)C[C@H](COC(C)=O)[C@H](OC(C)=O)[C@@](C)(COC(C)=O)[C@@H]5CC[C@]43C)[C@@H]12 | 59.9 | 50.2 | 46.1 | 61.5 | 39
C=C(C)[C@@H]1CC[C@]2(C(=O)Oc3ccc(C#N)cc3)CC[C@]3(C)[C@H](CC[C@@H]4[C@@]5(C)CCC(=O)[C@@](C)(COC(C)=O)[C@@H]5CC[C@]43C)[C@@H]12 | 11.6 | 9.23 | 9.11 | 11.7 | 9.02
C=C(C)[C@@H]1CC[C@]2(C(=O)O)CC[C@]3(C)[C@H](CC[C@@H]4[C@@]5(C)CC/C(=N\NS(=O)(=O)c6ccc(C)cc6)[C@@](C)(CO)[C@@H]5CC[C@]43C)[C@@H]12 | 46.3 | 39.4 | 25.2 | 44.3 | 33.3
C=C(C)[C@@H]1CC[C@]2(C(=O)O)CC[C@]3(C)[C@H](CC[C@@H]4[C@@]5(C)C=C(O)C(=O)[C@@](C)(CO)[C@@H]5CC[C@]43C)[C@@H]12 | 22 | 19.6 | 14.3 | 20 | 11.3
COc1cccc2c1C(=O)c1c(O)c3c(c(O)c1C2=O)C[C@@](O)(C(=O)CO)C[C@@H]3O[C@H]1C[C@H](N)[C@H](O)[C@H](C)O1 [DOXORUBICIN] |  | 0.22 |  | 0.21 | 0.18
C=C(C)[C@@H]1CC[C@]2(C(=O)O)CC[C@]3(C)[C@H](CC[C@@H]4[C@@]5(C)C=C(OC(C)=O)C(=O)[C@@](C)(COC(C)=O)[C@@H]5CC[C@]43C)[C@@H]12 | 29.8 | 25.4 | 18.9 | 24.1 | 15
C=C(C)[C@@H]1CC[C@]2(C(=O)OCc3ccccc3)CC[C@]3(C)[C@H](CC[C@@H]4[C@@]5(C)C[C@H](O)[C@H](O)[C@@](C)(CO)[C@@H]5CC[C@]43C)[C@@H]12 | 49.9 | 39.6 | 33.5 | 50.4 | 26.4
C=C(C)[C@@H]1CC[C@]2(C(=O)O)CC[C@]3(C)[C@H](CC[C@@H]4[C@@]5(C)CCC(=O)[C@@](C)(COC(C)=O)[C@@H]5CC[C@]43C)[C@@H]12 | 30.2 | 29.4 | 28.9 | 32.1 | 17.1
C=C(C)[C@@H]1CC[C@]2(C(=O)OCCO)CC[C@]3(C)[C@H](CC[C@@H]4[C@@]5(C)CCC(=O)[C@@](C)(COC(C)=O)[C@@H]5CC[C@]43C)[C@@H]12 | 31.1 | 27.4 | 22.1 | 24.4 | 18.1
C=C(C)[C@@H]1CC[C@]2(C(=O)OCC)CC[C@]3(C)[C@H](CC[C@@H]4[C@@]5(C)CCC(=O)[C@@](C)(CO)[C@@H]5CC[C@]43C)[C@@H]12 | 31.9 | 30.9 | 28.9 | 37.1 | 19.4
C=C(C)[C@@H]1CC[C@]2(C(=O)OCc3ccccc3)CC[C@]3(C)[C@H](CC[C@@H]4[C@@]5(C)CC/C(=N\NS(=O)(=O)c6ccc(C)cc6)[C@@](C)(CO)[C@@H]5CC[C@]43C)[C@@H]12 | 29.1 | 26.4 | 18.4 | 21.9 | 16.2
C=C(C)[C@@H]1CC[C@]2(C(=O)O)CC[C@]3(C)[C@H](CC[C@@H]4[C@@]5(C)C[C@H](O)[C@H](O)[C@@](C)(CO)[C@@H]5CC[C@]43C)[C@@H]12 | 66.3 | 56.8 | 53.9 | 67.8 | 36.9
C=C(C)[C@@H]1CC[C@]2(C(=O)NCC(=O)OC)CC[C@]3(C)[C@H](CC[C@@H]4[C@@]5(C)CCC(=O)[C@@](C)(COC(C)=O)[C@@H]5CC[C@]43C)[C@@H]12 | 19.2 | 15.6 | 13.6 | 17.1 | 10.7
C=C(C)[C@@H]1CC[C@]2(C(=O)O)CC[C@]3(C)[C@H](CC[C@@H]4[C@@]5(C)C[C@H](OC(C)=O)[C@H](OC(C)=O)[C@@](C)(COC(C)=O)[C@@H]5CC[C@]43C)[C@@H]12 | 58.1 | 49.6 | 45.8 | 59.1 | 30.5
C=CCOC(=O)[C@]12CC[C@@H](C(=C)C)[C@@H]1[C@H]1CC[C@@H]3[C@@]4(C)CCC(=O)[C@@](C)(CO)[C@@H]4CC[C@@]3(C)[C@]1(C)CC2 | 21.8 | 19 | 15.1 | 22.8 | 11.8
C=C(C)[C@@H]1CC[C@]2(C(=O)O)CC[C@]3(C)[C@H](CC[C@@H]4[C@@]5(C)C[C@H](CO)[C@H](O)[C@@](C)(CO)[C@@H]5CC[C@]43C)[C@@H]12 | 69 | 59.1 | 50.2 | 70.8 | 47.9
C=C(C)[C@@H]1CC[C@]2(C(=O)O[C@@H]3O[C@H](CO)[C@@H](O)[C@H](O)[C@H]3O)CC[C@]3(C)[C@H](CC[C@@H]4[C@@]5(C)CCC(=O)[C@@](C)(CO)[C@@H]5CC[C@]43C)[C@@H]12 | 26.6 | 22.1 | 21.4 | 31 | 14.7
C=C(C)[C@@H]1CC[C@]2(C(=O)OCc3ccccc3)CC[C@]3(C)[C@H](CC[C@@H]4[C@@]5(C)C[C@H](OC(C)=O)[C@H](OC(C)=O)[C@@](C)(COC(C)=O)[C@@H]5CC[C@]43C)[C@@H]12 | 46.1 | 34.5 | 32.1 | 46 | 21.6
C=C(C)[C@@H]1CC[C@]2(C(=O)OCc3ccc(-c4ccccc4C#N)cc3)CC[C@]3(C)[C@H](CC[C@@H]4[C@@]5(C)CCC(=O)[C@@](C)(CO)[C@@H]5CC[C@]43C)[C@@H]12 | 14.3 | 10.3 | 10.1 | 15.2 | 10
C=C(C)[C@@H]1CC[C@]2(C(=O)OCc3ccccc3)CC[C@]3(C)[C@H](CC[C@@H]4[C@@]5(C)CCC(=O)[C@@](C)(CO)[C@@H]5CC[C@]43C)[C@@H]12 | 23.7 | 20.1 | 19.5 | 26.1 | 14.1
C=CCOC(=O)[C@]12CC[C@@H](C(=C)C)[C@@H]1[C@H]1CC[C@@H]3[C@@]4(C)CC/C(=N\O)[C@@](C)(CO)[C@@H]4CC[C@@]3(C)[C@]1(C)CC2 | 24.1 | 22.6 | 15.5 | 25 | 13.1
C=C(C)[C@@H]1CC[C@]2(C(=O)N3CCOCC3)CC[C@]3(C)[C@H](CC[C@@H]4[C@@]5(C)CCC(=O)[C@@](C)(COC(C)=O)[C@@H]5CC[C@]43C)[C@@H]12 | 12.1 | 10.5 | 10.1 | 10.3 | 8.16
C=C(C)[C@@H]1CC[C@]2(C(=O)OCc3ccccc3)CC[C@]3(C)[C@H](CC[C@@H]4[C@@]5(C)C[C@H](CO)[C@H](O)[C@@](C)(CO)[C@@H]5CC[C@]43C)[C@@H]12 | 47.9 | 41.7 | 39.1 | 51.4 | 30.5
C=C(C)[C@@H]1CC[C@]2(C(=O)OCC(=O)O)CC[C@]3(C)[C@H](CC[C@@H]4[C@@]5(C)CC/C(=N\O)[C@@](C)(CO)[C@@H]5CC[C@]43C)[C@@H]12 | 30.5 | 27.2 | 17.5 | 23.8 | 17.4
C=C(C)[C@@H]1CC[C@]2(C(=O)OCC)CC[C@]3(C)[C@H](CC[C@@H]4[C@@]5(C)CC/C(=N\O)[C@@](C)(CO)[C@@H]5CC[C@]43C)[C@@H]12 | 31.6 | 30.8 | 28.6 | 31.7 | 17.6
